{
  "source": "patent US11767310B2",
  "about": "“Nicotinamide RIPK1 inhibitors” (AbbVie Inc., priority 2021, dated 2023)",
  "assay_in_all_cases": "Kinase binding screen",
  "key": {"FYN": {"biological_target": "FYN (Homo sapiens (Human), UniProt P06241)", "conditions": "read-out: Percent Control at 100 nM Compound Concentration"}, "DAPK2": {"biological_target": "DAPK2 (Homo sapiens (Human), UniProt Q9UIK4)", "conditions": "read-out: Percent Control at 100 nM Compound Concentration"}, "PRKCD": {"biological_target": "PRKCD (Homo sapiens (Human), UniProt Q05655)", "conditions": "read-out: Percent Control at 100 nM Compound Concentration"}, "KIT(V559D)": {"biological_target": "KIT(V559D) (Homo sapiens (Human), UniProt P10721, V559D)", "sequence (P10721 26-976 V559D)": "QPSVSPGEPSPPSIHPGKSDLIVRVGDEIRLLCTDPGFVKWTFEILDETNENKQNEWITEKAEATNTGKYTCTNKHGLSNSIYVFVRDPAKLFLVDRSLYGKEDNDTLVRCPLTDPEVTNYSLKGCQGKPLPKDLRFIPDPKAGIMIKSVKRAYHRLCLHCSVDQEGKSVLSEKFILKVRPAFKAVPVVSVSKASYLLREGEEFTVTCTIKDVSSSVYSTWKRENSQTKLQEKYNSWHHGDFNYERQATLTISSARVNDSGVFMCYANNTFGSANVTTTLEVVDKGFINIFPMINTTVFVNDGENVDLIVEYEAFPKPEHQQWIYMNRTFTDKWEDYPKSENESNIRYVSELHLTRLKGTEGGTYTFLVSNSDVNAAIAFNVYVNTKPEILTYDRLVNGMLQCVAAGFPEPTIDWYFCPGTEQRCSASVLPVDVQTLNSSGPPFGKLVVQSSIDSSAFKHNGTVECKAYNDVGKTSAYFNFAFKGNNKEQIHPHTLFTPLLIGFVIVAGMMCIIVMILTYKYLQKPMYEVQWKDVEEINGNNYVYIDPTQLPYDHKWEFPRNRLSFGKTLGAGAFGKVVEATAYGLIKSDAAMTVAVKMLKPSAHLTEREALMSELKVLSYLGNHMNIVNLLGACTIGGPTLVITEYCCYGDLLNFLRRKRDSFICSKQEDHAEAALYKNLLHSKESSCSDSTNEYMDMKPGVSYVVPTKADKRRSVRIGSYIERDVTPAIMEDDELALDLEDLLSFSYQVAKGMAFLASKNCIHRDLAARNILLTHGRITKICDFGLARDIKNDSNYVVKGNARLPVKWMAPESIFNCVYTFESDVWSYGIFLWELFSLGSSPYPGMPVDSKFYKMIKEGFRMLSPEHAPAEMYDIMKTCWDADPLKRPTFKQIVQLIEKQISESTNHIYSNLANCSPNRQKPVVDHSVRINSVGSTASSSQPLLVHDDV", "conditions": "read-out: Percent Control at 100 nM Compound Concentration"}, "KIT(A829P)": {"biological_target": "KIT(A829P) (Homo sapiens (Human), UniProt P10721, A829P)", "sequence (P10721 26-976 A829P)": "as the sequence (P10721 26-976 V559D) above, with D534V, A804P counted along it", "conditions": "read-out: Percent Control at 100 nM Compound Concentration"}, "IRAK3": {"biological_target": "IRAK3 (Homo sapiens (Human), UniProt Q9Y616)", "conditions": "read-out: Percent Control at 100 nM Compound Concentration"}, "ASK2": {"biological_target": "ASK2 (Homo sapiens (Human), UniProt O95382)", "conditions": "read-out: Percent Control at 100 nM Compound Concentration"}, "DCAMKL3": {"biological_target": "DCAMKL3 (Homo sapiens (Human), UniProt Q9C098)", "conditions": "read-out: Percent Control at 100 nM Compound Concentration"}, "CDK4": {"biological_target": "CDK4 (Homo sapiens (Human), UniProt P11802)", "conditions": "read-out: Percent Control at 100 nM Compound Concentration"}, "FLT3(ITD)": {"system": "FLT3(ITD)", "design": "species or system human"}, "TRPM6": {"biological_target": "TRPM6 (Homo sapiens (Human), UniProt Q9BX84)", "conditions": "read-out: Percent Control at 100 nM Compound Concentration"}, "TLK2": {"biological_target": "TLK2 (Homo sapiens (Human), UniProt Q86UE8)", "conditions": "read-out: Percent Control at 100 nM Compound Concentration"}, "MARK4": {"biological_target": "MARK4 (Homo sapiens (Human), UniProt Q96L34)", "conditions": "read-out: Percent Control at 100 nM Compound Concentration"}, "MARK3": {"biological_target": "MARK3 (Homo sapiens (Human), UniProt P27448)", "conditions": "read-out: Percent Control at 100 nM Compound Concentration"}, "MET(Y1235D)": {"biological_target": "MET(Y1235D) (Homo sapiens (Human), UniProt P08581, Y1235D)", "conditions": "read-out: Percent Control at 100 nM Compound Concentration"}, "[1]": {"biological_target": "ABL1(E255K)-phosphorylated (Homo sapiens (Human), UniProt P00519, E255K)", "conditions": "read-out: Percent Control at 100 nM Compound Concentration"}, "DYRK2": {"biological_target": "DYRK2 (Homo sapiens (Human), UniProt Q92630)", "conditions": "read-out: Percent Control at 100 nM Compound Concentration"}, "TEC": {"biological_target": "TEC (Homo sapiens (Human), UniProt P42680)", "sequence (P42680 whole entry)": "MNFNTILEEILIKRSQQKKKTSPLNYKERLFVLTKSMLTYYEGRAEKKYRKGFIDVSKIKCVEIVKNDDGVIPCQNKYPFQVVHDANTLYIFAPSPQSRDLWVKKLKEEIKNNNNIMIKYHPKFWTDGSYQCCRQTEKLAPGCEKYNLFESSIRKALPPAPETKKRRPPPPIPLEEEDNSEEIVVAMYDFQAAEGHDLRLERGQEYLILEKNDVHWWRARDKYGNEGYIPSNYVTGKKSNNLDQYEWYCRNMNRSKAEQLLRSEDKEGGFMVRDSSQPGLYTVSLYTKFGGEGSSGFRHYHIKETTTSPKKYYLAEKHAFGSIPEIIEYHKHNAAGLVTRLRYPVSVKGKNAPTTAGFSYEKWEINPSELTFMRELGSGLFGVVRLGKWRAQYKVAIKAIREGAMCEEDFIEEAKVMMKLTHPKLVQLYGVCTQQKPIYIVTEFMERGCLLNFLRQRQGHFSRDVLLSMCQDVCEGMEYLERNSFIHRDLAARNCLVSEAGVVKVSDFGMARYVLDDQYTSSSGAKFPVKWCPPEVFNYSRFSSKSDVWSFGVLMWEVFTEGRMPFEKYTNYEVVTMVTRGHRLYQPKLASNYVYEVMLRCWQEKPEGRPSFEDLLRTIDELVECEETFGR", "conditions": "read-out: Percent Control at 100 nM Compound Concentration"}, "PAK6": {"biological_target": "PAK6 (Homo sapiens (Human), UniProt Q9NQU5)", "conditions": "read-out: Percent Control at 100 nM Compound Concentration"}, "EGFR(L861Q)": {"biological_target": "EGFR(L861Q) (Homo sapiens (Human), UniProt P00533, L861Q)", "sequence (P00533 25-1210 L861Q)": "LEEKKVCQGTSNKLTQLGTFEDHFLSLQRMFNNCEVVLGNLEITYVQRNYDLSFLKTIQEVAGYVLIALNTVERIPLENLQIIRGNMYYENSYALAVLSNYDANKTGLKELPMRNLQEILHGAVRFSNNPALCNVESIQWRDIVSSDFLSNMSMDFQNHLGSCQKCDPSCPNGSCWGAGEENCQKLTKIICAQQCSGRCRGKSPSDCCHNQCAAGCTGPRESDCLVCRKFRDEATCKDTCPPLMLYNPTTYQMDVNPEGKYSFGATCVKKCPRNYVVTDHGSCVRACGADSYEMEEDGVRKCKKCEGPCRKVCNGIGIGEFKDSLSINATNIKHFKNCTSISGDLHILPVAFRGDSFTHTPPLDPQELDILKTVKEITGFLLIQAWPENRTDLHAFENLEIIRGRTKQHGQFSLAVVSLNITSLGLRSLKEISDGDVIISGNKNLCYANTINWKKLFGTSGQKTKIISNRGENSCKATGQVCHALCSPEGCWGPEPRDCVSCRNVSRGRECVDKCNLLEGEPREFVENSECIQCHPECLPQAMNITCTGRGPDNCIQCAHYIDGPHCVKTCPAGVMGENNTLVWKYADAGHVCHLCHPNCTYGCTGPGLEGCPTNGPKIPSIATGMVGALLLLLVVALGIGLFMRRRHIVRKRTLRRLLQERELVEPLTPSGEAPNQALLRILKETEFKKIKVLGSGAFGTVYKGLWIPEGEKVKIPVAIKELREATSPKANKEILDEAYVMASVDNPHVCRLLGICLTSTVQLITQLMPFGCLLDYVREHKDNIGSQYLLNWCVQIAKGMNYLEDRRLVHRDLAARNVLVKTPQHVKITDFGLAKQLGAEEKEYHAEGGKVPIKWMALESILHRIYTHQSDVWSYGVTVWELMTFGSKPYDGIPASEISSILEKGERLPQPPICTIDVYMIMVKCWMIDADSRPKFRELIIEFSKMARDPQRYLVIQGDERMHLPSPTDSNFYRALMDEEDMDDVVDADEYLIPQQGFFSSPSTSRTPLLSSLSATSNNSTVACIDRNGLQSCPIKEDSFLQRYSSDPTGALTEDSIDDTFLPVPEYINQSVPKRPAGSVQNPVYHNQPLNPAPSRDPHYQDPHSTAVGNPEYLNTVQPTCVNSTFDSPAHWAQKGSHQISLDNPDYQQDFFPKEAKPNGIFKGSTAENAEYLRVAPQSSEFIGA", "conditions": "read-out: Percent Control at 100 nM Compound Concentration"}, "MYLK": {"biological_target": "MYLK (Homo sapiens (Human), UniProt Q15746)", "conditions": "read-out: Percent Control at 100 nM Compound Concentration"}, "WEE2": {"biological_target": "WEE2 (Homo sapiens (Human), UniProt P0C1S8)", "sequence (P0C1S8 whole entry)": "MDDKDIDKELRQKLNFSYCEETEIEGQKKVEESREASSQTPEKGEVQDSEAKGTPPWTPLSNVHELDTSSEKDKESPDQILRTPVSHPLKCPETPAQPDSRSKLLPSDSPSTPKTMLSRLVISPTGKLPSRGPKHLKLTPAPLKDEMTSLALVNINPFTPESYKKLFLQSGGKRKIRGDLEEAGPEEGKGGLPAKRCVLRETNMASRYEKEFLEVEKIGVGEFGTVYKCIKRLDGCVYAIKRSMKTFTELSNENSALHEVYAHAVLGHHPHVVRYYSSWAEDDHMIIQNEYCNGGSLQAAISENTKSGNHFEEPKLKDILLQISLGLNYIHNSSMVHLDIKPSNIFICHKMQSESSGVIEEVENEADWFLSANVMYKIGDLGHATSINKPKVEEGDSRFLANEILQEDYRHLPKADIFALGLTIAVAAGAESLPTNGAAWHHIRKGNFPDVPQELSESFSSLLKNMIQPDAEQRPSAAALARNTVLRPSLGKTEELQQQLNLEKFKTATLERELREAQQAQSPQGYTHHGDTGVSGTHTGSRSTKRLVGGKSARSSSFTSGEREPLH", "conditions": "read-out: Percent Control at 100 nM Compound Concentration"}, "YSK1": {"biological_target": "YSK1 (Homo sapiens (Human), UniProt O00506)", "conditions": "read-out: Percent Control at 100 nM Compound Concentration"}, "PLK1": {"biological_target": "PLK1 (Homo sapiens (Human), UniProt P53350)", "sequence (P53350 whole entry)": "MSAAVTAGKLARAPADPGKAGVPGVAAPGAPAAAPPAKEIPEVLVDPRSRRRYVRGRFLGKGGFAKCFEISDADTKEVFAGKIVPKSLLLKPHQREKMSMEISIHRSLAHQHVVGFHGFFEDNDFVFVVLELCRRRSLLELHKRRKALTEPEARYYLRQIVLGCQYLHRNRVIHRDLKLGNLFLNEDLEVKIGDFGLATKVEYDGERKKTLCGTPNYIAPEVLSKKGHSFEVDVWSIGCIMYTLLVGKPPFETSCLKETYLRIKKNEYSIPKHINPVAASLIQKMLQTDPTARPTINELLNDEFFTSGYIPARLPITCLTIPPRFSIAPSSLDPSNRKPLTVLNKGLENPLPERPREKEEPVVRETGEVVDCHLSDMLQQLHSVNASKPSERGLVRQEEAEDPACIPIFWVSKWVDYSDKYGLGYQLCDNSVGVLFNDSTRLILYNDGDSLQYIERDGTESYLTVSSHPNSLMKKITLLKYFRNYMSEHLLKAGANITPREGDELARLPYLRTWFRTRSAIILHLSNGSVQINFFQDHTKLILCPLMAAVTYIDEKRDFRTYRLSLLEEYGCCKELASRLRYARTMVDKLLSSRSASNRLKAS", "conditions": "read-out: Percent Control at 100 nM Compound Concentration"}, "MAP4K4": {"biological_target": "MAP4K4 (Homo sapiens (Human), UniProt O95819)", "conditions": "read-out: Percent Control at 100 nM Compound Concentration"}, "LKB1": {"biological_target": "LKB1 (Homo sapiens (Human), UniProt Q15831)", "conditions": "read-out: Percent Control at 100 nM Compound Concentration"}, "EGFR": {"biological_target": "EGFR (Homo sapiens (Human), UniProt P00533)", "conditions": "read-out: Percent Control at 100 nM Compound Concentration"}, "YES": {"biological_target": "YES (Homo sapiens (Human), UniProt P07947)", "conditions": "read-out: Percent Control at 100 nM Compound Concentration"}, "EPHB2": {"biological_target": "EPHB2 (Homo sapiens (Human), UniProt P29323)", "sequence (P29323 19-1055)": "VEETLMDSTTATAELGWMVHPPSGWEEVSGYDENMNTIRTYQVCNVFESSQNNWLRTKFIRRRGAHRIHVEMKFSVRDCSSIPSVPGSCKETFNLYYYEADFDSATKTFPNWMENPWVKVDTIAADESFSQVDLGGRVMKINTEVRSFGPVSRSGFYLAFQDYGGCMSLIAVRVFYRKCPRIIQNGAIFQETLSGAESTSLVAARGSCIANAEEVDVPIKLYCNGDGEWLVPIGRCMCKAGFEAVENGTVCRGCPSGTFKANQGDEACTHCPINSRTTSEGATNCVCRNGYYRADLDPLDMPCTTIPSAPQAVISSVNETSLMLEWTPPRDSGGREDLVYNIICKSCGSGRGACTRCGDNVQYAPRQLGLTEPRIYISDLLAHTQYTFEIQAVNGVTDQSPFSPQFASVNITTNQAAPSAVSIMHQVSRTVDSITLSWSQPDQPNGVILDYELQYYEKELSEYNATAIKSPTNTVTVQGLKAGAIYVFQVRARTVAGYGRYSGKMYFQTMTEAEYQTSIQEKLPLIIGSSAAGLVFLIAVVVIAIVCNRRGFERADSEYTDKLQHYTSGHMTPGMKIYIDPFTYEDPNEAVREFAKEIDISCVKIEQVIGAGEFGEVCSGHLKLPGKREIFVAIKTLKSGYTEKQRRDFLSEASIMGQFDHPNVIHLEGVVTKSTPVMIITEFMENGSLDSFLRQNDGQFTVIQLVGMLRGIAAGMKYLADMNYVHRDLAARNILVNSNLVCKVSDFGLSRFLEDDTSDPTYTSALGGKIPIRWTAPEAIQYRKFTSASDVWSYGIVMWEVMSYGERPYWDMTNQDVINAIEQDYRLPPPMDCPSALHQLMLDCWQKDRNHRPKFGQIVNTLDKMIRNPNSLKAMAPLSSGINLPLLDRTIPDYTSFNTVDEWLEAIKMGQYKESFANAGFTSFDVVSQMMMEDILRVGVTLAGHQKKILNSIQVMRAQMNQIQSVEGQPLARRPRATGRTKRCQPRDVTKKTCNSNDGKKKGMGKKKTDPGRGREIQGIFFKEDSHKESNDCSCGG", "conditions": "read-out: Percent Control at 100 nM Compound Concentration"}},
  "note": "Read-outs that look alike come from different tables or passages of the source.",
  "data": [
    {"smiles": "CN(C[C@@H](O)Cc1ccccc1)C(=O)c1cncc(C#Cc2cnn(C(F)F)c2)c1", "note": "[Example 2, (S)-5-((1-(difluoromethyl)-1H-pyrazol-4-yl)ethynyl)-N-(2-hydroxy-3-phenylpropyl)-N-methylnicotinamide]", "values": [
      {"measurement": "remaining activity at 0.1 µM", "setting": "FYN; FYN", "result": 100, "unit": "%"},
      {"measurement": "remaining activity at 0.1 µM", "setting": "DAPK2; DAPK2", "result": 100, "unit": "%"},
      {"measurement": "remaining activity at 0.1 µM", "setting": "PRKCD; PRKCD", "result": 98, "unit": "%"},
      {"measurement": "remaining activity at 0.1 µM", "setting": "KIT(V559D); KIT(V559D)", "result": 100, "unit": "%"},
      {"measurement": "remaining activity at 0.1 µM", "setting": "KIT(A829P); KIT(A829P)", "result": 100, "unit": "%"},
      {"measurement": "remaining activity at 0.1 µM", "setting": "IRAK3; IRAK3", "result": 96, "unit": "%"},
      {"measurement": "remaining activity at 0.1 µM", "setting": "ASK2; ASK2", "result": 100, "unit": "%"},
      {"measurement": "remaining activity at 0.1 µM", "setting": "DCAMKL3; DCAMKL3", "result": 100, "unit": "%"},
      {"measurement": "remaining activity at 0.1 µM", "setting": "CDK4; CDK4", "result": 100, "unit": "%"},
      {"measurement": "Percent Control at 100 nM Compound Concentration", "setting": "FLT3(ITD)", "result": 100, "unit": "%"},
      {"measurement": "remaining activity at 0.1 µM", "setting": "TRPM6; TRPM6", "result": 99, "unit": "%"},
      {"measurement": "remaining activity at 0.1 µM", "setting": "TLK2; TLK2", "result": 100, "unit": "%"},
      {"measurement": "remaining activity at 0.1 µM", "setting": "MARK4; MARK4", "result": 91, "unit": "%"},
      {"measurement": "remaining activity at 0.1 µM", "setting": "MARK3; MARK3", "result": 98, "unit": "%"},
      {"measurement": "remaining activity at 0.1 µM", "setting": "MET(Y1235D); MET(Y1235D)", "result": 98, "unit": "%"},
      {"measurement": "remaining activity at 0.1 µM", "setting": "[1]; ABL1(E255K)-phosphorylated", "result": 86, "unit": "%"},
      {"measurement": "remaining activity at 0.1 µM", "setting": "DYRK2; DYRK2", "result": 100, "unit": "%"},
      {"measurement": "remaining activity at 0.1 µM", "setting": "TEC; TEC", "result": 99, "unit": "%"},
      {"measurement": "remaining activity at 0.1 µM", "setting": "PAK6; PAK6", "result": 85, "unit": "%"},
      {"measurement": "remaining activity at 0.1 µM", "setting": "EGFR(L861Q); EGFR(L861Q)", "result": 100, "unit": "%"},
      {"measurement": "remaining activity at 0.1 µM", "setting": "MYLK; MYLK", "result": 87, "unit": "%"},
      {"measurement": "remaining activity at 0.1 µM", "setting": "WEE2; WEE2", "result": 100, "unit": "%"},
      {"measurement": "remaining activity at 0.1 µM", "setting": "YSK1; YSK1", "result": 100, "unit": "%"},
      {"measurement": "remaining activity at 0.1 µM", "setting": "PLK1; PLK1", "result": 87, "unit": "%"},
      {"measurement": "remaining activity at 0.1 µM", "setting": "MAP4K4; MAP4K4", "result": 92, "unit": "%"},
      {"measurement": "remaining activity at 0.1 µM", "setting": "LKB1; LKB1", "result": 70, "unit": "%"},
      {"measurement": "remaining activity at 0.1 µM", "setting": "EGFR; EGFR", "result": 93, "unit": "%"},
      {"measurement": "remaining activity at 0.1 µM", "setting": "YES; YES", "result": 100, "unit": "%"},
      {"measurement": "remaining activity at 0.1 µM", "setting": "EPHB2; EPHB2", "result": 100, "unit": "%"}
    ]},
    {"smiles": "CN(C[C@H](Cc1ccccc1)OP(=O)(O)O)C(=O)c1cncc(C#Cc2cnn(C(F)F)c2)c1", "note": "[Example 19, (S)-1-(5-((1-(difluoromethyl)-1H-pyrazol-4-yl)ethynyl)-N-methylnicotinamido)-3-phenylpropan-2-yl dihydrogen phosphate]", "values": [
      {"measurement": "remaining activity at 0.1 µM", "setting": "FYN", "result": 100, "unit": "%"},
      {"measurement": "remaining activity at 0.1 µM", "setting": "DAPK2", "result": 90, "unit": "%"},
      {"measurement": "remaining activity at 0.1 µM", "setting": "PRKCD", "result": 94, "unit": "%"},
      {"measurement": "remaining activity at 0.1 µM", "setting": "KIT(V559D)", "result": 96, "unit": "%"},
      {"measurement": "remaining activity at 0.1 µM", "setting": "KIT(A829P)", "result": 99, "unit": "%"},
      {"measurement": "remaining activity at 0.1 µM", "setting": "IRAK3", "result": 92, "unit": "%"},
      {"measurement": "remaining activity at 0.1 µM", "setting": "ASK2", "result": 98, "unit": "%"},
      {"measurement": "remaining activity at 0.1 µM", "setting": "DCAMKL3", "result": 100, "unit": "%"},
      {"measurement": "remaining activity at 0.1 µM", "setting": "CDK4", "result": 93, "unit": "%"},
      {"measurement": "Percent Control at 100 nM Compound Concentration", "setting": "FLT3(ITD)", "result": 100, "unit": "%"},
      {"measurement": "remaining activity at 0.1 µM", "setting": "TRPM6", "result": 95, "unit": "%"},
      {"measurement": "remaining activity at 0.1 µM", "setting": "TLK2", "result": 100, "unit": "%"},
      {"measurement": "remaining activity at 0.1 µM", "setting": "MARK4", "result": 94, "unit": "%"},
      {"measurement": "remaining activity at 0.1 µM", "setting": "MARK3", "result": 97, "unit": "%"},
      {"measurement": "remaining activity at 0.1 µM", "setting": "MET(Y1235D)", "result": 99, "unit": "%"},
      {"measurement": "remaining activity at 0.1 µM", "setting": "[1]", "result": 91, "unit": "%"},
      {"measurement": "remaining activity at 0.1 µM", "setting": "DYRK2", "result": 97, "unit": "%"},
      {"measurement": "remaining activity at 0.1 µM", "setting": "TEC", "result": 93, "unit": "%"},
      {"measurement": "remaining activity at 0.1 µM", "setting": "PAK6", "result": 80, "unit": "%"},
      {"measurement": "remaining activity at 0.1 µM", "setting": "EGFR(L861Q)", "result": 86, "unit": "%"},
      {"measurement": "remaining activity at 0.1 µM", "setting": "MYLK", "result": 86, "unit": "%"},
      {"measurement": "remaining activity at 0.1 µM", "setting": "WEE2", "result": 100, "unit": "%"},
      {"measurement": "remaining activity at 0.1 µM", "setting": "YSK1", "result": 97, "unit": "%"},
      {"measurement": "remaining activity at 0.1 µM", "setting": "PLK1", "result": 87, "unit": "%"},
      {"measurement": "remaining activity at 0.1 µM", "setting": "MAP4K4", "result": 95, "unit": "%"},
      {"measurement": "remaining activity at 0.1 µM", "setting": "LKB1", "result": 79, "unit": "%"},
      {"measurement": "remaining activity at 0.1 µM", "setting": "EGFR", "result": 100, "unit": "%"},
      {"measurement": "remaining activity at 0.1 µM", "setting": "YES", "result": 100, "unit": "%"},
      {"measurement": "remaining activity at 0.1 µM", "setting": "EPHB2", "result": 100, "unit": "%"}
    ]}
  ]
}
